Key:
Assay type in all cases: biochemical
Horse sEH = Horse sEH (Equus caballus, UniProt F7C407); details: CMNPC ([S]final = 5 μM) as substrate; average ± standard deviation (n = 3)
Description: (§1) The sEH activity from the cat, dog and horse liver was further purified to eliminate contaminating esterase activity that could interfere with the screening fluorescent assay ([16]). The cytosolic fraction was loaded on a Q-Sepharose column (100 mL) equilibrated with sodium phosphate buffer (20 mM pH 7.4). After washing of the bound proteins, the sEH activity was eluted with a step gradient of NaCl (0–1 M). The fractions containing the sEH activity were pooled and concentrated using a Centriprep-30. The concentrates were aliquoted and flash frozen, then kept frozen at −80°C until usage. […] Protein concentration was quantified using the Pierce BCA assay (Pierce, Rockford, IL), using Fraction V bovine serum albumin (BSA) as the calibrating standard.
(§2) The IC50 values reported herein were determined using either a fluorescent based assay (CMNPC as substrate) for purified enzyme preparations or a radioactive based assay ([^3H]t-DPPO as substrate) for crude enzyme preparations ([20]). The fluorescent assay was used with the purified proteins. […] The substrate (CMNPC) was then added ([S]final = 5 μM). […] The radioactive […] assay was used with the liver crude extracts. […]

[1] = target: T1, sEH activity from liver cytosol of Mouse (Mus musculus, UniProt P34914); experiment: sEH inhibition potency (IC50), radioactive assay with [3H]t-DPPO, liver cytosol; details: [3H]t-DPPO ([S]final = 5 μM) as substrate
T1 construct: The radioactive fluorescent assay was used with the liver crude extracts; from tissue; host or cells: mouse liver cytosol (100,000 g supernatant)
T1 sequence (P34914 1-554): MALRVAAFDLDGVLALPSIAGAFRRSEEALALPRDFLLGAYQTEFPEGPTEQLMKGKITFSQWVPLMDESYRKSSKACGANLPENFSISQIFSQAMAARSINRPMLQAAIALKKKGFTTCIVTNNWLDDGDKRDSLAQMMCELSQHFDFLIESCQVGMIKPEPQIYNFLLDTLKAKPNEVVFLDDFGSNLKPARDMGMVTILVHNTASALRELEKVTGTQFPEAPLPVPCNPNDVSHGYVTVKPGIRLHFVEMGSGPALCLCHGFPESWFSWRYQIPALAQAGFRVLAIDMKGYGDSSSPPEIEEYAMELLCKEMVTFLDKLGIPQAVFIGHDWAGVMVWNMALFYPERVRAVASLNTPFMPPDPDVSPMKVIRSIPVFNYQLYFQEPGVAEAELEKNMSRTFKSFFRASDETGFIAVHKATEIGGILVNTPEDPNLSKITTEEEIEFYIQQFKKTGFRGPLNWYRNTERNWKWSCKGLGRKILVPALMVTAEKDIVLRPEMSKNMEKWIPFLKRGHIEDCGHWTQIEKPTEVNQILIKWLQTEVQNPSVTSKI

[2] = target: sEH activity from liver cytosol of Cow (Bos taurus, UniProt Q17QK4); experiment: as above; details: [3H]t-DPPO ([S]final = 5 μM) as substrate
Cat sEH = Cat sEH (Felis catus, UniProt A0ABI7ZL20); experiment: sEH inhibition potency (IC50), fluorescent assay with CMNPC, partially purified enzyme; details: CMNPC ([S]final = 5 μM) as substrate; average ± standard deviation (n = 3)
Dog sEH = target: T2, Dog sEH (Canis lupus familiaris, UniProt A0A8I3NJL8); experiment: as above; details: CMNPC ([S]final = 5 μM) as substrate; average ± standard deviation (n = 3)
T2 sequence (A0A8I3NJL8 1-556): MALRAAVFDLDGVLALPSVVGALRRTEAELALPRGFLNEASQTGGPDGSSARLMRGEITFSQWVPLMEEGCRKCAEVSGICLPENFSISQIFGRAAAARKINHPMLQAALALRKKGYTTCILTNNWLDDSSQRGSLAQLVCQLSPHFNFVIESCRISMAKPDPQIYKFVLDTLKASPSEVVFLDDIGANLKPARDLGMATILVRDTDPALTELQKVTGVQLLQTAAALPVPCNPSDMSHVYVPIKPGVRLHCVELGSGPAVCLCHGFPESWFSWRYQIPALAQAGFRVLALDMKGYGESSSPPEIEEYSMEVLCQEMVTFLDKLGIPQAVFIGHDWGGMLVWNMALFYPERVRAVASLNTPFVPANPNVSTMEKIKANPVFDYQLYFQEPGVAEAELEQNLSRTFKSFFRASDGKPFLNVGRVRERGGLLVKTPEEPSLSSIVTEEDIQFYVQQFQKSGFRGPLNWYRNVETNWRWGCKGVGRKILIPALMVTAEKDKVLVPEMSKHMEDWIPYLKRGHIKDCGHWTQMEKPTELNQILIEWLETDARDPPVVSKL
Description: as §1, §2

Cat sEH, sequence (A0ABI7ZL20 entry or part of it): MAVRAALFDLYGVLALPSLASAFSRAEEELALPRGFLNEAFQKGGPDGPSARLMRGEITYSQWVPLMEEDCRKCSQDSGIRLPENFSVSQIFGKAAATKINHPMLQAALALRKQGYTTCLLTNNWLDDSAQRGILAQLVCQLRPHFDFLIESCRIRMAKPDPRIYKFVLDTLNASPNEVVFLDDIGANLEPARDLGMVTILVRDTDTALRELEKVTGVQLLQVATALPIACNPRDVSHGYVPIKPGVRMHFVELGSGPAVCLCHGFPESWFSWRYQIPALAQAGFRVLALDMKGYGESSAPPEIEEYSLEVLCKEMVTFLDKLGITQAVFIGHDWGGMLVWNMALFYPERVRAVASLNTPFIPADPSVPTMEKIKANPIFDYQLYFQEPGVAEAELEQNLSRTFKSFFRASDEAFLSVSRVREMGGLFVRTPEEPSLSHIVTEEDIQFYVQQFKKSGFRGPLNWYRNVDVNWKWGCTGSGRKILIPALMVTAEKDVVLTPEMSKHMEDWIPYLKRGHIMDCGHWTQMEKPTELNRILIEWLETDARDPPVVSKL
Horse sEH, sequence (F7C407 entry or part of it): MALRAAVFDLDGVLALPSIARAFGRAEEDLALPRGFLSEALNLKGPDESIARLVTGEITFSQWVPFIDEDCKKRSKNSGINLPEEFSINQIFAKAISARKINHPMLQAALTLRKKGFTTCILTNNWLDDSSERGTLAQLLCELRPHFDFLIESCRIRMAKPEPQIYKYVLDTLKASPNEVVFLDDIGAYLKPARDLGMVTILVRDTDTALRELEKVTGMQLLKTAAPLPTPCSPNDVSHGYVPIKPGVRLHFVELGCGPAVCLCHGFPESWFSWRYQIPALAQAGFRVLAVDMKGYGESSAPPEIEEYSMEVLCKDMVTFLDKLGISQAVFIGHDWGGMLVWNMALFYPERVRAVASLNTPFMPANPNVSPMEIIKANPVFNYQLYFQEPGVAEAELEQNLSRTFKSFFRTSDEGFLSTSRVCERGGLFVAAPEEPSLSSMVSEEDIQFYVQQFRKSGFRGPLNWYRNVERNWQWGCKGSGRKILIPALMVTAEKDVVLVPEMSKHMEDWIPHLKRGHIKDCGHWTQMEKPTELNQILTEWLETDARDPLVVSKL
sEH activity from liver cytosol of Cow, sequence (Q17QK4 entry or part of it): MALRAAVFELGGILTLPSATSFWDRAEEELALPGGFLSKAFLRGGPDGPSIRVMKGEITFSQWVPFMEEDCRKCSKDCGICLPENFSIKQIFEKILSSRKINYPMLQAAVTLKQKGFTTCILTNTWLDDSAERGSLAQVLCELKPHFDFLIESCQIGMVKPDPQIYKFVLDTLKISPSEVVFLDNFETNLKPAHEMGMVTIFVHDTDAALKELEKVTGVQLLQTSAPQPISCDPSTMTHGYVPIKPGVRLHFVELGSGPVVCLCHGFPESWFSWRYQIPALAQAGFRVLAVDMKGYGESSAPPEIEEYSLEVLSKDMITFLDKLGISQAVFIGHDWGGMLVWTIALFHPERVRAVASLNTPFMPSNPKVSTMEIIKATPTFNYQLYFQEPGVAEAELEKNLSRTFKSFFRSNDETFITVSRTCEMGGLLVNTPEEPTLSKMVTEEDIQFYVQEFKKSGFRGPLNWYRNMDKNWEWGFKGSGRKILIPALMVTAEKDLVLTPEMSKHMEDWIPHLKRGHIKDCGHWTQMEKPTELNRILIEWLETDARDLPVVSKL

Row | SMILES | IC50 (Horse sEH) | IC50 [1] | IC50 [2] | IC50 (Cat sEH) | IC50 (Dog sEH)
1 | O=C(NCCCCOc1ccc(F)cc1)NC12CC3CC(CC(C3)C1)C2 [1,707] | 0.5 ± 0.03 nM | 10 nM | 7 nM | 0.5 ± 0.02 nM | 0.9 ± 0.1 nM
2 | N#CNC(=O)CCCCCCCCCCCNC(=O)NC12CC3CC(CC(C3)C1)C2 [1,845] | 0.4 ± 0.01 nM | 17 nM | 11 nM | 0.4 ± 0.01 nM | 0.6 ± 0.04 nM

— paper PMC7479175, “Selection of Potent Inhibitors of Soluble Epoxide Hydrolase for Usage in Veterinary Medicine” (Frontiers in Veterinary Science, 2020)
